What was measured:
[1] = target: T1, human type recombinant neutral endopeptidase (hNEP) (Homo sapiens, UniProt P08473); assay: Resistance to peptidase: stability to hNEP (HPLC residual rate); assay type: in vitro ADME; conditions: hNEP, 37° C., 1 hour, 0.5 μg/mL, 20 mM MES pH 6.5, mean of N = 2
T1 construct: purchased R&D Systems, Inc., U.S.A
Description: (§1) The experiment was conducted in N=2 for each sample. Native CNP-22, chimeric CNP (A, B) (structure mentioned already; final concentration: 0.5 μg/mL) and 100 μL of reaction solution (medium: 20 mM MES, pH 6.5) of human type recombinant neutral endopeptidase (hNEP, manufactured by R&D Systems, Inc., U.S.A.) were prepared. […] Distilled water (100 μL) was added to the sample after boiling followed by well mixing and 50 μL thereof was analyzed in a water-acetonitrile system using a high-performance liquid chromatography system LC-10A (manufactured by Shimadzu). The analytical data were analyzed by a Chromato-Pack (CRA-10A, manufactured by Shimadzu) and area of the peak zone of unchanged substance was calculated. The area of average zone of unchanged substance when made to react at 37° C. was divided by the area of average zone of the boiled sample to calculate the residual rate of the unchanged substance after 1 hour.

[2] = target: T2, neutral endopeptidase (NEP) (Homo sapiens, UniProt P08473); assay: as above; assay type: in vitro ADME; conditions: human, isolated enzyme neprilysin; hNEP, 37° C., 1 hour, 0.5 μg/mL, 20 mM MES pH 6.5, mean of N = 2; read-out: Residual Rate
T2 construct: purchased R&D Systems, Inc., U.S.A
T2 sequence (P08473 whole entry): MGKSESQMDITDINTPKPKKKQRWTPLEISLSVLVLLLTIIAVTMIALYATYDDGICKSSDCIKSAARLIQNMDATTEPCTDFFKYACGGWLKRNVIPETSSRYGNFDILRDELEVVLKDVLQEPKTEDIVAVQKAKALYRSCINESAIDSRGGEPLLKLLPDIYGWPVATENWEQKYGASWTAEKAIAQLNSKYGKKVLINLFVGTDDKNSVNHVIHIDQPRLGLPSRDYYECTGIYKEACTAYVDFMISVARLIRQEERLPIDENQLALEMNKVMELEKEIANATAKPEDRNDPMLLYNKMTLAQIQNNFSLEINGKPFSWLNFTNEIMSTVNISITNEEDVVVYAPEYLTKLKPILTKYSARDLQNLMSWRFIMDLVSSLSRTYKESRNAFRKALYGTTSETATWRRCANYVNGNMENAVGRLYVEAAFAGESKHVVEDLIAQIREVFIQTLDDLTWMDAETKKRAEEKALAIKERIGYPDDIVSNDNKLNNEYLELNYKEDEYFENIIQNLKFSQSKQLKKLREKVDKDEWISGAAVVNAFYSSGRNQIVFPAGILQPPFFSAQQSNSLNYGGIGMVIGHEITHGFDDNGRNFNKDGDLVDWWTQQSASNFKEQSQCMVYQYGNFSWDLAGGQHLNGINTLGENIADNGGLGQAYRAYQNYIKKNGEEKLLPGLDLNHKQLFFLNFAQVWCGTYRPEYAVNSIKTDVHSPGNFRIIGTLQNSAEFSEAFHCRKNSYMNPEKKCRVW
Description: as §1

[3] = Antigenicity by indirect ELISA of serum after repeated administration; assay type: in vivo; conditions: 0.25 mg/kg subcutaneous twice daily for 29 days, mouse serum
Description: In order to investigate whether an antibody to native CNP-22 or chimeric CNP (B) was produced using serum collected from the mice after completion of repeated administration for four weeks in Example 4, antigenicity of each of them was evaluated by means of an indirect ELISA. A peptide solution (100 μL) adjusted to 1.0 ng/μL using 50 mM of […] at pH 8.5 was added to a 96-well plate (manufactured by Nalge Nunc International; Denmark) treated with Maxisoap and subjected to a coating operation overnight at 4° C. A blocking was carried out at room temperature for 1 hour using a 2.0% Block Ace (manufactured by Snow Brand Milk). […] After washing the wells, an anti-mouse IgG HRPAb (manufactured by Zymed Laboratories, U.S.A.) was added thereto. The antigen-antibody reaction was conducted for 1 hour at room temperature, then the wells were washed and a substrate ABTS (manufactured by KPL, U.S.A.) was added thereto.

[4] = CNP immunoreactivity concentration in plasma, half-life after intravenous administration (Example 7); conditions: male, SD, rat, in vivo, 10 nmol/kg
Description: The experiment was carried out using rats into which polyethylene tube (PE-50 manufactured by Clay Adams) was previously inserted into thigh artery under an anesthetized condition with Nembutal. As to a test system, male SD strain rats (Nippon Charles River) of 7 weeks age were used where one group comprised 3 rats. Native CNP-22 or chimeric CNP in a dose of 10 nmol/kg was administered into tail vein of the rat and the blood before the administration and until 60 minutes after the administration was collected by a polyethylene tube inserted into the thigh artery. To the collected blood were added EDTA (manufactured by Dojin Laboratories) and aprotinin (manufactured by Bayer) as a stabilizer and an anti-coagulant, respectively and the plasma was separated therefrom by centrifugal separation. CNP immunoreactivity concentration in plasma was measured by a competitive radioimmunoassay (RIA). At that time, a rabbit polyclonal antibody (#2) which specifically recognizes the ring partial structure of the native CNP-22 was used as an antibody and, as a labeled compound, ^125I-[Tyr^0] CNP was used.

[5] = Comparison of half-life in plasma of native CNP-22, native CNP-53 and chimeric CNP (Example 12); conditions: male, SD, rat, in vivo, iv, 20 nmol/kg, T½ Mean Value, intravenous, male rats, N = 3
Description: Changes in CNP immunoreactivity concentration in plasma when the native CNP-22 shown by SEQ ID No: 101 was administered either solely or jointly with neutral endo-peptidase (NEP) inhibitor and compared with changes in CNP immunoreactivity concentration in plasma when native CNP-53 (SEQ ID No: 159) and the chimeric CNP (D) (structure mentioned already) were intravenously administered.
The experiment was conducted using rats where polyethylene tube (PE-50, manufactured by Clay Adams) was previously inserted into thigh artery under the anesthetized condition with Nembutal. In the group where the native CNP-22 was administered either solely or jointly with an NEP inhibitor, the polyethylene tube (PE-10, manufactured by Clay Adams) was also inserted into the thigh vein. As to a test system, male SD rats (Nippon Charles River) of 7 weeks age were used where one group comprised three rats. As to the NEP inhibitor, DL-Thiorphan (manufactured by Sigma) was used and, during the period from 10 minutes before the initiation of administration of the native CNP-22 until 60 minutes after the initiation of the administration where collection of the blood finished, 5% mannitol (100 μL/min/body) or NEP inhibitor (30 μg/100 μL/min/body) was subjected to a constant-speed intravenous administration for 70 minutes using an Infusion Pump (CFV 2100, manufactured by Nippon Koden K. K.). Native CNP-22, native CNP-53 or chimeric CNP (D) was administered into tail vein in a dose of 20 nmol/kg each and blood over the time from before administration and 60 minutes after administration was collected from a polyethylene tube inserted into the thigh artery. To the collected blood were added EDTA (Dojin Laboratories) and aprotinin (manufactured by Bayer) as a stabilizer and an anti-coagulant, respectively and the plasma was separated by means of centrifugal separation. CNP immunoreactivity concentration in the plasma was measured by a competitive radioimmunoassay (RIA). At that time, a rabbit polyclonal antibody (#2) which specifically recognizes a ring part structure which is the common structure for native CNP-22 and native CNP-53 was used as an antibody while, as a labeling compound, ^125I-[Tyr^0] CNP-22 was used.

[6] = CNP immunoreactivity concentration in plasma, half-life after intravenous administration (Example 9); conditions: male, SD, rat, in vivo, 20 nmol/kg

T1 sequence (P08473 whole entry): as above

In the case of `CC[C@H](C)[C@@H]1NC(=O)[C@H](CCCNC(=N)N)NC(=O)[C@H](CC(=O)O)NC(=O)[C@H](CC(C)C)NC(=O)[C@H](CCCCN)NC(=O)[C@H](CC(C)C)NC(=O)CNC(=O)[C@H](Cc2ccccc2)NC(=O)[C@@H](NC(=O)CNC(=O)[C@H](CCCCN)NC(=O)[C@H](CO)NC(=O)[C@H](CC(C)C)NC(=O)CN)CSSC[C@@H](C(=O)O)NC(=O)CNC(=O)[C@H](CC(C)C)NC(=O)CNC(=O)[C@H](CO)NC(=O)[C@H](CCSC)NC(=O)[C@H](CO)NC(=O)CNC1=O` [Native CNP-22], the “Residual Rate” value [1] is reported as 16.7%, the remaining at 1 h, 0.5 μg/mL [2] is reported as 16.7% and the antibody value [3] is reported as “no rise”. The half-life [4] was 4.34 min, the half-life ([5]; Joint Use with NEP Inhibitor: no) was 1.11 min and the half-life ([5]; Joint Use with NEP Inhibitor: yes (DL-Thiorphan)) was 16.2 min. For the same molecule, the half-life [6] was 1.6 min.

Reference: patent US8551937B2, “Peptide having an extending action for half-life of object peptide in plasma” (priority 2008, dated 2013)
